Where “and” joins values, the source holds several entries; their conditions need not be identical. Identical values can stand only once. Like-named read-outs stand apart in the source and are kept apart here.

For data set [1], the system named is human immunodeficiency virus (HIV). The data set is described as follows: microbe, parasite or virus in culture. On the procedure: (§1) The assay basically involves the killing of T4 lymphocytes by HIV in cell cultures. Small amounts of HIV are added to cells, and at least two complete cycles of virus reproduction are necessary to obtain the required killing. Agents which interact with virions, cells, or virus gene-products to interfere with viral activities will protect cells from cytolysis. All tests are compared with a positive control done at the same time under identical conditions. The positive control in these experiments was AZT.
(§2) Harvest experiments were conducted in which HIV infected cell cultures were post-treated with the compound of Example 1 at a number of concentrations. T4 lymphocytes (CEM cell line) are exposed to HIV at a virus to cell ratio approximately 0.05, and plated along with noninfected control cells in 96-well microtiter plates. 2,3-Bis-(3,4-dimethoxyphenyl)-3-chloropropenal was dissolved in dimethyl sulfoxide, then diluted 1:200 in cell culture medium. Further dilutions (half-log10) are prepared before adding to an equal volume of medium containing either infected or noninfected cells. Plates are incubated at 37° C. in a 5% carbon dioxide atmosphere for 6 days. Triphenyl tetrazolium chloride (1% weight by volume) is added to each well and cultures are further incubated to allow color development of viable cells. Individual wells are analyzed spectrophotometrically to quantitate color production and are viewed microscopically for detection of viable cells and confirmation of protective activity. Drug-treated virus-infected cells are compared with drug-treated noninfected cells and other appropriate controls (untreated infected and untreated noninfected cells, drug-containing wells without cells, etc.) on the same plate. Data are reviewed in comparison with other tests done at the same time, and a determination about antiviral activity is made.
(§3) The solid line connecting the diamond symbols depicts the percentage of surviving HIV-infected cells treated with the present test sample at the indicated concentration relative to uninfected, untreated controls. This line represents the in-vitro anti-HIV activity of the sample. The dashed line connecting the square symbols depicts the percentage of surviving uninfected cells treated with the present compound relative to the same uninfected, untreated controls. This line represents the in-vitro growth inhibitory properties. The viral cytopathic effect in this experiment is indicated by a dotted reference line. This line show the extent of destruction of cells by the virus in the absence of treatment and is used as a quality control parameter. Values of this parameter […] 50% are considered acceptable in the current protocol. Reference line at 50% is depicted as alternating dots and dashes.

In data set [2] the test system is T4 lymphocytes (CEM cell line). The experiment in a line: in-vitro growth inhibition / cytotoxicity in noninfected T4 lymphocytes (UNINFECTED CULTURE). The following applies: for cytotoxicity to uninfected cells (in words): visual / microscopic; for IC50: Homo sapiens, CCRF-CEM, uninfected CEM cells; for Response (%), uninfected culture (surviving uninfected cells, % of uninfected untreated control): 6 days, Tables 1-3 = separate experiments, 8640 min. Type of data set: cell-based. On the procedure:
as §1, §2, §3
(§4) Also, every attempt was made to reduce variability in the assay procedure set forth hereinabove and the values for EC50, IC50 and Therapeutic Index (TI) were determined within experimental limitations.

Experiment in data set [3]: as above
Type of data set: cell-based. The following applies: human, cem cells, 6 days, Table 4, read-out: Response (%), uninfected culture (surviving uninfected cells, % of uninfected untreated control). As to the method:
as §1, §2, §3, §4

Where [4] appears, read: Human immunodeficiency virus 1, CCRF-CEM, in Homo sapiens, 144 h, read-out: Response (%), infected culture (surviving HIV-infected cells, % of uninfected untreated control).

On to `COc1ccc(C(Cl)=C(C=O)c2ccc(OC)cc2)cc1` [2,3-di-(4-methoxyphenyl)-3-chloro-acrylaldehyde, reference compound], for which the “anti-HIV activity in cell culture (in words)” value in data set [1] is “found unacceptable for further preclinical consideration”.

As to `Cc1cn([C@H]2C[C@H](N=[N+]=[N-])[C@@H](CO)O2)c(=O)[nH]c1=O` [AZT, azidothymidine, reference compound], the “cytotoxicity to uninfected cells (in words)” value in data set [2] (uninfected culture) is listed as “exhibited microscopic cytotoxicity to uninfected cells”.

Consider `COc1ccc(C(Cl)=C(C=O)c2ccc(OC)c(OC)c2)cc1OC` [Example 1, 2,3-Bis-(3,4-Dimethoxyphenyl)-3-Chloropropenal], for which, in data set [1], the “selectivity compared to AZT (in words)” value is “pronounced at the reported concentrations” and the “selectivity, infected vs. uninfected cells (in words)” value is on record as “selective, exhibiting toxicity to infected cells, yet not toxic towards normal cells or cells free of virus”. In data set [1] (setting [4]), the viability at 0.0266 µg/mL is 6.9%, the viability at 0.0733 µM was 18.5%, the viability at 0.084 µg/mL was 6.8% and the viability at 0.231 µM was 18%. In addition, in data set [1] (setting [4]), the viability at 0.265 µg/mL worked out at 5.4%, the viability at 0.266 µg/mL was determined as 8.2%, the viability at 0.732 µM is 18.8% and the viability at 0.839 µg/mL amounted to 7.2%. For the same compound, in data set [1] (setting [4]), the viability at 2.31 µM was 19.9%, the viability at 2.65 µg/mL worked out at 6.6%, the viability at 7.31 µM worked out at 60.2% and the viability at 23.1 µM stood at 79.5%. Besides, in data set [1] (setting [4]), the viability at 26.4 µg/mL was determined as 84.6%, the viability at 73 µM was 76.2%, the viability at 83.7 µg/mL came out at 94.8% and the viability at 230 µM worked out at 75.4%. For the same compound, the EC50 in data set [1] (Human immunodeficiency virus 1, CCRF-CEM, read-out: EC50 (effective kill concentration for 50% of the experimental virus)) is roughly 15.6 µg/mL. Further, the EC50 in data set [1] (Human immunodeficiency virus 1, CCRF-CEM, read-out: EC50 (molar value)) amounted to 5.45 µM. Moreover, the “TI50 (therapeutic index)” value in data set [1] (human, cem cells, 8640 min) is > 4.22×10^+1. The IC50 in data set [2] (FIG. 1 / Table 1 experiment, read-out: IC50 (inhibition concentration required for 50% of cell growth)) is greater than 83.7 µg/mL. Moreover, the IC50 in data set [2] (FIG. 4 / Table 4 experiment, read-out: IC50 (molar value), cell growth) was greater than 230 µM. Further, in data set [2] (dose 2.64 × 10^+1 μg/ml), the “Response (%), uninfected culture (surviving uninfected cells, % of uninfected untreated control)” value (“Response (%), uninfected culture” below) was 112.4% and 109.3% and 115.9%. In data set [2] (dose 2.65 × 10^+0 μg/ml), the “Response (%), uninfected culture” value is 103.5% and 106.3% and 108.3%. In addition, the “Response (%), uninfected culture” value in data set [2] (dose 2.65 × 10^-1 μg/ml) was 102.7% and 99.7% and 103.4%. Besides, in data set [2] (dose 2.66 × 10^-2 μg/ml), the “Response (%), uninfected culture” value is 99.2% and 104.4%. For the same compound, the “Response (%), uninfected culture” value in data set [2] (dose 8.37 × 10^+1 μg/ml) was 112.2% and 91.9% and 114.3%. Also, in data set [2] (dose 8.38 × 10^+0 μg/ml), the “Response (%), uninfected culture” value is 106.0% and 103.1% and 113.1%. For the same compound, the “Response (%), uninfected culture” value in data set [2] (dose 8.39 × 10^-1 μg/ml) was 105.6% and 101.2% and 107.0%. Moreover, in data set [2] (dose 8.40 × 10^-2 μg/ml), the “Response (%), uninfected culture” value was 104.5% and 103.1% and 99.6%. Also, in data set [2] (uninfected culture, Tables 1-4), the “cell growth in uninfected culture (in words)” value is listed as “cell growth actually increased in most of these test results”. Moreover, the “cytotoxicity to uninfected cells (in words)” value in data set [2] (uninfected culture) was “no significant visual or microscopic cytotoxicity was observed in the uninfected culture”. Besides, the viability at 144 h, 230 µM in data set [3] (dose 2.30 × 10^-4 Molar) worked out at 77.3%. Also, the viability at 144 h, 23.1 µM in data set [3] (dose 2.31 × 10^-5 Molar) was determined as 90.2%. The viability at 144 h, 2.31 µM in data set [3] (dose 2.31 × 10^-6 Molar) stood at 92.7%. Further, the viability at 144 h, 0.231 µM in data set [3] (dose 2.31 × 10^-7 Molar) is 104%. In addition, the viability at 144 h, 73 µM in data set [3] (dose 7.30 × 10^-5 Molar) was 83.5%. In data set [3] (dose 7.31 × 10^-6 Molar), the viability at 144 h, 7.31 µM was 94.3%. For the same compound, the viability at 144 h, 0.732 µM in data set [3] (dose 7.32 × 10^-7 Molar) was determined as 96.5%. Besides, the viability at 144 h, 0.0733 µM in data set [3] (dose 7.33 × 10^-8 Molar) was found to be 101%.

With `O=CC(=C(Cl)c1ccc2c(c1)OCO2)c1ccc2c(c1)OCO2` [Example 3, 2,3-Bis-(3,4-Methylenedioxyphenyl)-3-Chloropropenal], in data set [1], the “anti-HIV activity in cell culture (in words)” value is listed as “produced mixed results under the experimental assay procedure reported hereinabove, the results clearly indicated antiviral activity” and the “antiviral activity relative to 2,3-bis-(3,4-dimethoxyphenyl)-3-chloropropenal (in words)” value is “significantly less than that of the structurally analogous test compound”.

(Values after patent publication US5034544A, “Antiviral 2,3-bis-(aryl)-3-chloropropenal compounds” (priority 1989, dated 1991).)
